These results are taken from PubChem BioAssay AID743267 (Broad Institute, 2014).

This experiment deals with human bronchial epithelial cells, CFTR corrector, plate reader. Kind of experiment: rescue of ΔF508 CFTR function, airway epithelium – human bronchial epithelial cells, plate reader, cherry-pick, two tests, dose response (AID 743267).
[1] abbreviates: measured here: test 2 replicate run.
Where [2] appears, read: measured here: test 1 replicate run.

Turning to `CC[n+]1c(-c2ccccc2)c2cc(N)ccc2c2ccc(N)cc21`, under setting [1], the AC50 (commonly the concentration at which the activity in the assay is half-maximal) was 7.74 µM. As for `COc1cc(OC)c2c(-c3cccc(-c4cccc(N)c4)c3)cc(=O)oc2c1`, the AC50 under setting [1] worked out at 3.43 µM. Compared with the last molecule, the AC50 is about 2.3-fold lower. On the same count and under the same terms, the value for `Cc1cccc(C(=O)N(Cc2ccco2)c2c(N)n(Cc3ccccc3)c(=O)[nH]c2=O)c1` was greater than 50 µM; that for `Cc1cc(C(=O)CCC(=O)NC(C)c2ccc(S(N)(=O)=O)cc2)c(C)s1` (stereo not drawn) was greater than 50 µM. Still for that read-out and setting: the value for `Clc1ccc2c(c1)-c1ccccc1C1=NCCN12` was 2.72 µM; that for `N#CC1=C(N)Oc2c(ccc3cccnc23)C1c1ccccc1` (stereo not drawn) was 2.97 µM. For the molecule `COc1ccc(S(=O)(=O)N2CC[C@@H]3[C@@H](CO)Nc4ccc(-c5cccc(C#N)c5)cc4[C@@H]32)cc1`, the AC50 under setting [2] amounted to 16 µM. This lies in the double-digit micromolar range. Take `N#Cc1ccc(-c2cccs2)nc1SCc1cccnc1`: the AC50 under setting [1] worked out at 0.519 µM. That is a sub-micromolar value. Under setting [2], `CS(=O)(=O)N1CC(=O)N2[C@H](C1)[C@H](c1ccc(C#Cc3ccc(F)cc3)cc1)[C@@H]2CO` registered an AC50 of 23.9 µM. Molecule `COc1ccc(Nc2nc(-c3sc(C)nc3C)cs2)cc1` came in with an AC50 under setting [1] of 0.272 µM. This lies in the sub-micromolar range. On the same count and under the same terms, with `Oc1cccc(/C=N/Nc2ccc(Cl)nn2)c1O` the figure was 16 µM; with `N#CCC(=O)N/N=C/c1cn(Cc2cccc3ccccc23)c2ccccc12`, 2.86 µM. Same read-out and setting: with `CCOc1ccc(NC(=O)c2cc(OC)nc3ccccc23)cc1` the figure was 1.7 µM; with `COc1cccc(N2CCN(C(=O)c3ccc(CS(=O)c4ccc(C)cc4)o3)CC2)c1` (stereo not drawn), 0.539 µM. On the same count and under the same terms, with `COc1ccc(OC)c(C2CC(c3ccccc3)=NN2C(=S)Nc2ccccc2)c1` (stereo not drawn) the figure was 8.44 µM. The molecule `CN1c2ccc(-c3ccc(F)cc3)cc2[C@H]2[C@H](CCN2S(=O)(=O)c2ccc(F)cc2)[C@H]1CO` registered an AC50 under setting [2] of 6.55 µM. `COc1cccc(N=Nc2ccc3cccnc3c2O)c1` came in with an AC50 under setting [1] greater than 50 µM. Under setting [1], `O=Cc1ccccc1OCc1ccc2c(c1)OCO2` had an AC50 of 14.5 µM. Still for that read-out and setting: with `Cc1ccc(C(=O)N/N=C/c2cc(Br)ccc2O)cn1` the figure was 0.672 µM; with `NS(=O)(=O)c1cc(C2(O)NC(=O)c3ccccc32)ccc1Cl` (stereo not drawn), greater than 50 µM. As for `COc1ccc(S(=O)(=O)Nc2cccc3ccc(O)cc23)cc1`, under setting [1], the AC50 came out at 6.82 µM. In other words, the single-digit micromolar range. Same read-out and setting: the value for `COc1cccc2c1C(=O)C=C(C)C2=O` was 15.2 µM; that for `CN(Cc1ccco1)c1ncnc2ccc(-c3ccc4c(ccn4C)c3)cc12` was 1.77 µM; that for `O=C1/C(=C\c2ccc(O)cc2)SC(=S)N1Cc1ccccc1` was 20.5 µM. Same read-out and setting: the value for `COc1ccc2[nH]c(C(=O)N/N=C/c3ccc(OC)c(O)c3)cc2c1` was 0.85 µM; that for `Cc1cccc(N2CCN(C(=O)c3ccc4[nH]c(C)c(C)c4c3)CC2)c1C` was 1.85 µM; that for `Cc1cc2c(cc1C)C(c1ccccc1OC(C)C)CC(=O)N2` (stereo not drawn) was 1.85 µM.

As to `COc1ccc(-c2ccc3c(c2)[C@H]2[C@H](CCN2S(=O)(=O)c2ccc(OC)cc2)[C@H](CO)N3C)cc1`, the half-maximal activity concentration (AC50) under setting [2] came out at 1.17 µM. That is a single-digit micromolar value. For the molecule `CCOC(=O)c1ccc(Nc2sc(C(=O)c3cccc([N+](=O)[O-])c3)c(N)c2C#N)cc1`, the AC50 under setting [1] is 1.84 µM. Same read-out and setting: with `O=C1c2ccccc2C(=O)c2c1cccc2N(CCO)CCO` the figure was greater than 50 µM; with `O=C(/C=C/c1ccco1)NC(=S)Nc1nc(-c2ccc3ccccc3c2)cs1`, 3.34 µM. Still for that read-out and setting: with `COc1cc(-c2cnc3c(NC=O)cc(-c4cccc(C(F)(F)F)c4)cn23)cc(OC)c1OC` the figure was 7.05 µM; with `CC(C)Oc1ncnc2c1[nH]c1ccccc12`, 9.38 µM; with `O=C1C=CN(C2OC(CO)C(O)C2O)C(=O)C1` (stereo not drawn), greater than 50 µM.

`O=C(CCc1ccccc1)NCC(c1ccco1)N1CCc2ccccc21` (stereo not drawn): the AC50 under setting [1] was found to be 4.6 µM. This counts as single-digit micromolar. Under setting [1], `CCOc1ccccc1N1CCN(C(=O)c2cc3ccccc3cc2OC)CC1` displayed an AC50 of 3.45 µM. The same measure, in the same setting: with `COc1ccc2noc3c2c1C(=O)c1ccccc1-3` the figure was 19.1 µM; with `COc1ccc(C)cc1NC(=O)CNC(c1ccccc1)c1ccc(C)cc1` (stereo not drawn), 2.03 µM; with `Cc1cccc(N(C)S(=O)(=O)c2ccc(-c3cc(C)no3)s2)c1`, 0.738 µM. Still for that read-out and setting: with `N#CC(C#N)=C1C=C2C=C(N3CCCCCC3)CCC2CC1` (stereo not drawn) the figure was 0.239 µM. The same measure, in the same setting: with `CC[C@H]1CN2CCC1C[C@H]2[C@H](O)c1ccnc2ccc(OC)cc12` (stereo partly drawn) the figure was 12.9 µM; with `O=S(=O)(Cc1ccc(Cl)cc1Cl)c1ccc(Cl)cc1`, 2.72 µM; with `COCCOC(=O)c1[nH]c2c(c1C)C(=O)CC(c1cccs1)C2` (stereo not drawn), 4.16 µM. Consider `COc1ccc(/C(C)=N/NC(=O)c2cccc(S(=O)(=O)N3CCCC3)c2)c(O)c1`, for which the AC50 under setting [1] was greater than 50 µM. The same measure, in the same setting: the value for `Cc1nnc(NC(=O)CSc2nccn2-c2cccc(C)c2C)s1` was 7.08 µM.

With `COc1ccc(S(=O)(=O)N2CC[C@@H]3[C@H](CO)N(C)c4ccc(-c5ccc(F)cc5)cc4[C@@H]32)cc1`, the AC50 under setting [2] was determined as 16 µM.

In turn, `CCOC(=O)c1sc(Nc2nc(C)cc(C)n2)nc1C` had an AC50 under setting [1] of 11.5 µM. Still for that read-out and setting: with `Cc1cc(Nc2ccc(Br)cc2)nc2ccccc12` the figure was 21.1 µM; with `COc1cc(/C=N/NC(=O)c2cc(-c3c(C)nn(-c4ccccc4)c3C)n[nH]2)ccc1O`, 7.78 µM. The same measure, in the same setting: with `COc1ccc([C@H]2C[C@H](O)[C@@H](n3cc(-c4ccc(F)cc4)nn3)CN2Cc2cccs2)cc1` the figure was 16 µM; with `COc1cccc(Nc2nc(-c3sc(NC(=O)c4ccccc4)nc3C)cs2)c1`, 11.6 µM; with `C/C(=N\NC(=O)c1c(Cl)c(C)nn1C)c1ccc(NC(=O)C2CCC2)cc1`, 1.1 µM.

Molecule `COC(=O)c1ccccc1-c1c2ccc(=N)cc-2oc2cc(N)ccc12` registered an AC50 under setting [1] of 0.181 µM. Still for that read-out and setting: with `CC(C)n1cc(/C=C/c2cc[n+](C)cc2)c2ccccc21` the figure was 27.2 µM. Still for that read-out and setting: with `CN(CC(=O)NCCc1ccc(S(N)(=O)=O)cc1)CC(=O)Nc1ccc(Cl)c(C(F)(F)F)c1` the figure was 27.9 µM. Still for that read-out and setting: with `CCOc1ccc(-c2cc(C(=O)N3CCN(c4ccccn4)CC3)c3ccccc3n2)cc1` the figure was 16 µM. For the molecule `N#CC1=C(N)OC2=C(CCc3ccccc32)C1c1ccccc1Cl` (stereo not drawn), the concentration at half-maximal activity (AC50) under setting [1] amounted to 2.61 µM.

Turning to `CC1(C)OC(c2ccccc2)=C/C(=C/C=C2C(=O)NC(=S)NC2=O)O1`, under setting [1], the AC50 came out at 16.9 µM.

With `COc1ccc(NC(=O)N(C)C[C@@H]2Oc3cc(C#CCC(C)C)ccc3S(=O)(=O)N([C@H](C)CO)C[C@@H]2C)cc1`, the AC50 under setting [2] amounted to 16 µM. `COc1cc(C#Cc2ccc3cc(CCCO)oc(=O)c3c2)cc(OC)c1` displayed a concentration at half-maximal activity (AC50) under setting [1] of 10.3 µM.

Under setting [1], `O=C(NCc1ccccc1)C1Cc2c(-c3ccc(Cl)cc3)ccnc2O1` (stereo not drawn) had an AC50 of 2.18 µM.

Molecule `CCc1cc(-c2nnn(CCC3COCCO3)c2CC)ccc1-c1cn(Cc2ccc3ccccc3c2)nn1` (stereo not drawn) had an AC50 under setting [1] of 0.6 µM. On the same count and under the same terms, the value for `CCC1=Nc2cc(C(=O)NCc3cccnc3)ccc2Sc2ccc(C)cc21` was 6.64 µM; that for `COC(=O)c1ccc(/C=C/c2c(-c3ccc(OC)cc3)oc3ccc(N4CCOCC4)cc23)cc1` was 16 µM; that for `CC1(C)OC(c2ccccc2)=C/C(=C/C=C2C(=O)NC(=O)NC2=O)O1` was 24.8 µM. Still for that read-out and setting: with `Cc1ccc(C(=O)NC(=S)NNC(=O)c2ccccc2O)cc1` the figure was greater than 50 µM. As for `C[C@@H]1CN([C@H](C)CO)S(=O)(=O)c2ccc(-c3ccc(C#N)cc3)cc2O[C@H]1CN(C)Cc1ccccn1`, under setting [2], the concentration at half-maximal activity (AC50) is 16 µM. For the molecule `Cc1ccc(NC(=O)c2ccc(Cl)c(S(=O)(=O)Nc3c(C)n(C)n(-c4ccccc4)c3=O)c2)cc1Cl`, the AC50 under setting [1] turned out to be 30.3 µM.
